In ChEMBL document CHEMBL4184274 (Bioorg Med Chem Lett, 2018):

Assay: in vivo
Conditions: rat, 5 mg/kg

CCN1CCN(Cc2ccc(Nc3ncc(F)c(-c4cc(F)c5nc(C)n(C(C)C)c5c4)n3)nc2)CC1 [ABEMACICLIB] showed an AUC of 3280 ng·h/mL.
